Data published in ChEMBL document CHEMBL5465560, “Selectivity Literature for EUbOPEN Chemogenomic Library” (2024).
Blank lines part the entries; values can stand above or below the compound they belong to.

What was measured:
[1] = target: Macrophage-stimulating protein receptor (Homo sapiens, UniProt Q04912); assay: Selectivity interaction (KinomeScan (DiscoverX)) EUB0000607a MST1R; conditions: at 10 µM
[2] = target: Protein kinase C beta type (Homo sapiens, UniProt P05771); assay: Selectivity interaction (SelectScreen profiling (Invitrogen)) EUB0000607a PRKCB; conditions: at 2 µM
[3] = target: LIM domain kinase 2 (Homo sapiens) (UniProt P53671); assay: Selectivity interaction (Kinase panel (Invitrogen)) EUB0000639a LIMK2; conditions: at 200 nM
[4] = target: 5'-AMP-activated protein kinase catalytic subunit alpha-1 (Homo sapiens, UniProt Q13131); assay: Selectivity interaction (ActivX KiNativ screen (kinase selectivity in THP-1 cell lysates)) EUB0000639a PRKAA1; format: subcellular; conditions: lysate, at 1 µM
[5] = target: T1, Serine/threonine-protein kinase ULK3 (Homo sapiens) (UniProt Q6PHR2); assay: Selectivity interaction (ActivX KiNativ screen (kinase selectivity in THP-1 cell lysates)) EUB0000639a ULK3; format: subcellular; conditions: lysate, at 0.04 µM
T1 sequence (whole entry): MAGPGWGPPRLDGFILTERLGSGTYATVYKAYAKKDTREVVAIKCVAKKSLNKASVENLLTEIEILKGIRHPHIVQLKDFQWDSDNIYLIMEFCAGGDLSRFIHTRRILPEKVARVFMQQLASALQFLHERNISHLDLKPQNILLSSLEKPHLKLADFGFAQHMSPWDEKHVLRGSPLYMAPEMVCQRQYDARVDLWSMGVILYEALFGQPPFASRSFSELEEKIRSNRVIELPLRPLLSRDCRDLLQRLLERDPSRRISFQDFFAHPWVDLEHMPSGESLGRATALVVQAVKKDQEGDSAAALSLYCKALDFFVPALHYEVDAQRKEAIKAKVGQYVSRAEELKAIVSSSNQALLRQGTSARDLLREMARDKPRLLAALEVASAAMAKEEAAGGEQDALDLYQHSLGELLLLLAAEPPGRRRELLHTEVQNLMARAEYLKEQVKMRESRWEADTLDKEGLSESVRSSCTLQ

[6] = target: T2, N-lysine methyltransferase KMT5A (Homo sapiens) (UniProt Q9NQR1); assay: Selectivity interaction (Methyltransferase screen (Scintillation proximity assays)) EUB0000255b SETD8
T2 sequence (whole entry): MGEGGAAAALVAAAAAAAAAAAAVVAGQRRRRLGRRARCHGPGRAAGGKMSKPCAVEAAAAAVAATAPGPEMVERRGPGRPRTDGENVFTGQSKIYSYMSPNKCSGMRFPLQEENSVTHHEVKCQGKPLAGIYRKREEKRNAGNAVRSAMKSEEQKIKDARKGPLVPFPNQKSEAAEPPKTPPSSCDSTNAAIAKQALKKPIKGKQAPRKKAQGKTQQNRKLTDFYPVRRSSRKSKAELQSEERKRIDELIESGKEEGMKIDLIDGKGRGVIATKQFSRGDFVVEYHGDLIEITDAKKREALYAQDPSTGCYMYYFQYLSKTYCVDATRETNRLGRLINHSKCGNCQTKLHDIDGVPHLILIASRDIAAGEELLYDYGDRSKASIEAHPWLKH

[7] = target: Cyclin-dependent kinase 16 (Homo sapiens) (UniProt Q00536); conditions: at 10 µM
[8] = target: T3, Glycogen synthase kinase-3 alpha (Homo sapiens, UniProt P49840); assay: Selectivity interaction (Ambit KINOMEscan and KiNATiv profiling in Jurkat cells) EUB0000090b GSK3A; format: cell-based; conditions: at 1 µM
[9] = target: RAC-alpha serine/threonine-protein kinase (Homo sapiens, UniProt P31749)
[10] = target: T3, Glycogen synthase kinase-3 alpha; assay: Selectivity interaction (KinomeScan (DiscoverX)) EUB0000045b GSK3A
[11] = target: T4, Dual specificity tyrosine-phosphorylation-regulated kinase 2 (Homo sapiens) (UniProt Q92630); assay: Selectivity interaction (KinomeScan (DiscoverX)) EUB0000229b DYRK2; conditions: at 10 µM
T4 sequence (whole entry): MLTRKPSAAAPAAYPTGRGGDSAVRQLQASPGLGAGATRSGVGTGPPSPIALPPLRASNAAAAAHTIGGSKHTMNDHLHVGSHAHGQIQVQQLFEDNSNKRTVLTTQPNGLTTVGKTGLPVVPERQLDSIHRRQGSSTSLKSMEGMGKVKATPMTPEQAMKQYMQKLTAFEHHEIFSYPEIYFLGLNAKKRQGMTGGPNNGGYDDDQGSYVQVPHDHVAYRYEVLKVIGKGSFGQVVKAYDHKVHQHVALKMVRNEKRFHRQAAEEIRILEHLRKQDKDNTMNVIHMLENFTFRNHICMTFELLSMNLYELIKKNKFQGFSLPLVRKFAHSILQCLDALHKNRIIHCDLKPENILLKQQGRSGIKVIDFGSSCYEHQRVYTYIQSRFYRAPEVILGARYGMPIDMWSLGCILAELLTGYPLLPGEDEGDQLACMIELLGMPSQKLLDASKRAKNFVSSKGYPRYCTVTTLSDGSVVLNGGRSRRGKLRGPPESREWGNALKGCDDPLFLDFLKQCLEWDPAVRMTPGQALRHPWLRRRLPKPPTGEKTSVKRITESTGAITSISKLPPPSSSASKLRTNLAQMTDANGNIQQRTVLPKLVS

[12] = target: Serine/threonine-protein kinase Nek4 (Homo sapiens) (UniProt P51957); conditions: at 10 µM
Sequence of Serine/threonine-protein kinase Nek4 (Homo sapiens) (P51957 whole entry, looked up): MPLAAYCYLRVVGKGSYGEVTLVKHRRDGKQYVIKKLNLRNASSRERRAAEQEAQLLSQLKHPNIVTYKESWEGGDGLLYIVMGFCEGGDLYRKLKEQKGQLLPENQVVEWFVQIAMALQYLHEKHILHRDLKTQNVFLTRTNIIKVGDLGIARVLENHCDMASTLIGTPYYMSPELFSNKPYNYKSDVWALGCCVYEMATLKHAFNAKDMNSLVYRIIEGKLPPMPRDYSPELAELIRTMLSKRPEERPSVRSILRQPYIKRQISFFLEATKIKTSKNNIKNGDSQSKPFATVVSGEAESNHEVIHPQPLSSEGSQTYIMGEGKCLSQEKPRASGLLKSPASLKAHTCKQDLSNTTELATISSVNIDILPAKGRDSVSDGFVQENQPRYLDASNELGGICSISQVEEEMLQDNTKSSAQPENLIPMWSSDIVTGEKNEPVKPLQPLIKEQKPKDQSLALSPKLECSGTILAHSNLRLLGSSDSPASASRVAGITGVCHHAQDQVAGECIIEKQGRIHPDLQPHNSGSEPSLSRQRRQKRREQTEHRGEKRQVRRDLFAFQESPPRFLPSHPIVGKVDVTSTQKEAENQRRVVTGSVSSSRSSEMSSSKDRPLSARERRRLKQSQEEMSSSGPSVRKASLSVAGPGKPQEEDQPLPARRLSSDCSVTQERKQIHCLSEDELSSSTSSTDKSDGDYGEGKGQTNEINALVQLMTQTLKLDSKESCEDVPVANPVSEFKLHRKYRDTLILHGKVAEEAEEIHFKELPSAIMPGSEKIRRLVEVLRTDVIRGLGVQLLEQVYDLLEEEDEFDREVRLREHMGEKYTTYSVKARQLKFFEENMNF

T3 sequence (P49840 2-483 limits assumed): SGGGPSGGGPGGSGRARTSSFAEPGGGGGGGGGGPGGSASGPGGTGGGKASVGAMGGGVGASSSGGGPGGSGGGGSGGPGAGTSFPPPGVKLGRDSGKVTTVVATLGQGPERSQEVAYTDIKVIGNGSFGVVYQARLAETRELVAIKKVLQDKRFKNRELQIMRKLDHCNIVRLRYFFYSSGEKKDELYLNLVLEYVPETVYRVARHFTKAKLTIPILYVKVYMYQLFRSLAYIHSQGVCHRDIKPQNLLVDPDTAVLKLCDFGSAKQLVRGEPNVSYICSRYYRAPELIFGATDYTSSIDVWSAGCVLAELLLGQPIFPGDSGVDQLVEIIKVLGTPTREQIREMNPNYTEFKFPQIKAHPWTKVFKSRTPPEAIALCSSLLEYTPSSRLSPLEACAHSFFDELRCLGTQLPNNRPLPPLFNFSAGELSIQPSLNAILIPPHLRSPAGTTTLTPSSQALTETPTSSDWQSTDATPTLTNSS
Sequence of Protein kinase C beta type (P05771 2-671 limits assumed): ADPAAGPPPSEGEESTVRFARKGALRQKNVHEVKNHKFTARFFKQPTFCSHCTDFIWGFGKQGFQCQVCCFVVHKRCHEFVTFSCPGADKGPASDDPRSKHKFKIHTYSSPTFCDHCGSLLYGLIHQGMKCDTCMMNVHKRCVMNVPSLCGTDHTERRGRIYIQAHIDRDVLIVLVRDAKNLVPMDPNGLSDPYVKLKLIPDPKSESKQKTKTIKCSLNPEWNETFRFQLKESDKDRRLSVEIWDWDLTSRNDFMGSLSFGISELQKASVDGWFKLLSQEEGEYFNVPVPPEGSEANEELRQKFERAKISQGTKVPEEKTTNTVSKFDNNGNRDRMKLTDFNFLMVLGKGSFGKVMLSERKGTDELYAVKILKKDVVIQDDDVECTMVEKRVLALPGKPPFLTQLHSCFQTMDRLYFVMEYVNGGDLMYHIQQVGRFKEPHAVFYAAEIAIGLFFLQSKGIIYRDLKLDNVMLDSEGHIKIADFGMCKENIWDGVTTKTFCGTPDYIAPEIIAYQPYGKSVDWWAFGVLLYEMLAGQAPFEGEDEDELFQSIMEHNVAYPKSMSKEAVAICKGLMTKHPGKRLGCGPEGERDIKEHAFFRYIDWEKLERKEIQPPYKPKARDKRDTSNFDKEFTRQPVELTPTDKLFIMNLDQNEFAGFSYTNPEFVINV
Sequence of LIM domain kinase 2 (Homo sapiens) (P53671 whole entry, looked up, the tested form may be a part): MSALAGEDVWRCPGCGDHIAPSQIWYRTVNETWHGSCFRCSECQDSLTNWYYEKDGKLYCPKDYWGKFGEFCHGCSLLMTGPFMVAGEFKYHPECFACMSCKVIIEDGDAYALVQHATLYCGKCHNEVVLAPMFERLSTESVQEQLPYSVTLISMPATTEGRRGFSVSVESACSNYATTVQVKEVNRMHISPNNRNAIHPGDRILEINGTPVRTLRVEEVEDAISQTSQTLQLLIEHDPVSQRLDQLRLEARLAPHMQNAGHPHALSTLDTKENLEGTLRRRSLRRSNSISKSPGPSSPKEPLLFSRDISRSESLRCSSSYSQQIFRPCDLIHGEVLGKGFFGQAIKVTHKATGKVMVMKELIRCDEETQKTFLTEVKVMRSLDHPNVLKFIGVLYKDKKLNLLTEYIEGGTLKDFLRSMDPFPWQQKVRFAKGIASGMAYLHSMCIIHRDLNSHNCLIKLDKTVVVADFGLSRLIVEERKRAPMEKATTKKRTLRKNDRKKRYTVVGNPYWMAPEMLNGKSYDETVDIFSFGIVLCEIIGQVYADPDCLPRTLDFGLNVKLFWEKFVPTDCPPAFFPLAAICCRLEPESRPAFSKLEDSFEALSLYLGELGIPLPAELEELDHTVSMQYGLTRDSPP
Sequence of 5'-AMP-activated protein kinase catalytic subunit alpha-1 (Q13131 whole entry, looked up): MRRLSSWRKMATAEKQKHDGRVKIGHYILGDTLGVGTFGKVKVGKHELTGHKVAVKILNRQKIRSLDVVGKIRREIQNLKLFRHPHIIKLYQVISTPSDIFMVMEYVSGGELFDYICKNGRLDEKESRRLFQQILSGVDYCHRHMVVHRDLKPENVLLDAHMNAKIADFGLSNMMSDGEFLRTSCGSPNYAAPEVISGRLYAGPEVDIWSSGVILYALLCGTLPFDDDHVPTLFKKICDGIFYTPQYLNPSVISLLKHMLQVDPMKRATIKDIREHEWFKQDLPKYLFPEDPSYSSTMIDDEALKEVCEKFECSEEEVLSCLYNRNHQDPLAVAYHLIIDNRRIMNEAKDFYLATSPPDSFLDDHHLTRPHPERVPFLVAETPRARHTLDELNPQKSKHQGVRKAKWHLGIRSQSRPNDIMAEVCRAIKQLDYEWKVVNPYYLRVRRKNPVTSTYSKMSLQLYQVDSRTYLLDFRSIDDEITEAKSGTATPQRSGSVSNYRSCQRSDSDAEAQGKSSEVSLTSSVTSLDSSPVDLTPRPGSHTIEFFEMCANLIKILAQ
Sequence of Macrophage-stimulating protein receptor (Q04912 25-304 limits assumed): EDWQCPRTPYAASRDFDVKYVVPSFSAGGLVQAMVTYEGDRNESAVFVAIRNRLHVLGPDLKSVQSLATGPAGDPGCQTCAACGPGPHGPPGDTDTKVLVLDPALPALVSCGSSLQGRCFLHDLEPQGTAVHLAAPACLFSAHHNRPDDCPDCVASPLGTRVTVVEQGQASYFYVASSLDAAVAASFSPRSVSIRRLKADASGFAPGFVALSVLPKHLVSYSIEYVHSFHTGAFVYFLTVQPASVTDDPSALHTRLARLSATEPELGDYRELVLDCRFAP
Sequence of Macrophage-stimulating protein receptor (Q04912 310-1400 limits assumed): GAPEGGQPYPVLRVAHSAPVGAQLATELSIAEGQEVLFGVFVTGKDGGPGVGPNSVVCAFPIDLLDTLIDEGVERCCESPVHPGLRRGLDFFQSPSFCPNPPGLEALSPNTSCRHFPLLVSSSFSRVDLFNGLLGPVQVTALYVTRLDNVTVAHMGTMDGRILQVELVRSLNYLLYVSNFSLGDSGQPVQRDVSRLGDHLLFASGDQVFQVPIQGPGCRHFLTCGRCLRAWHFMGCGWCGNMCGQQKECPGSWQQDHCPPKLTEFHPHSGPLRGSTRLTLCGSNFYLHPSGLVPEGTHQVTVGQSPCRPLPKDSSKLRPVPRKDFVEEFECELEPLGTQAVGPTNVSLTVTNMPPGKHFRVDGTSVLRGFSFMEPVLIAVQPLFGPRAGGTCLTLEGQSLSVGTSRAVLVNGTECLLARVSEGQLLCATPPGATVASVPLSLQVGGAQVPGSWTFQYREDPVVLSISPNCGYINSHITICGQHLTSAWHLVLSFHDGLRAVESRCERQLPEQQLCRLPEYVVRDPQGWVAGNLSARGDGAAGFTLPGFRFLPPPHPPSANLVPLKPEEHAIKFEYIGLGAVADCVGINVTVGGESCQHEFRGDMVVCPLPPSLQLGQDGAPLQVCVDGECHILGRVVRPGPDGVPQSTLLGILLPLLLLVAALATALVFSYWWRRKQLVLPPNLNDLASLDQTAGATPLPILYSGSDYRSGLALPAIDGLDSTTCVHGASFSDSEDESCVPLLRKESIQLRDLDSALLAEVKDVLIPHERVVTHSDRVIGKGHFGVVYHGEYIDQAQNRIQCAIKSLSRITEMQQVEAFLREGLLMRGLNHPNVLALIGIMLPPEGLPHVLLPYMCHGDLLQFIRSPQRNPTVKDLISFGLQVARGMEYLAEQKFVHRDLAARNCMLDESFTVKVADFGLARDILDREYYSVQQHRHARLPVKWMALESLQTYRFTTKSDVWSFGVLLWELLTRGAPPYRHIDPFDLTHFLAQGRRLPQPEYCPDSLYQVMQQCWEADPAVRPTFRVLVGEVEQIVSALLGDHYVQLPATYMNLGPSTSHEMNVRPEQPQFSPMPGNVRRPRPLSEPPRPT
Sequence of RAC-alpha serine/threonine-protein kinase (P31749 whole entry): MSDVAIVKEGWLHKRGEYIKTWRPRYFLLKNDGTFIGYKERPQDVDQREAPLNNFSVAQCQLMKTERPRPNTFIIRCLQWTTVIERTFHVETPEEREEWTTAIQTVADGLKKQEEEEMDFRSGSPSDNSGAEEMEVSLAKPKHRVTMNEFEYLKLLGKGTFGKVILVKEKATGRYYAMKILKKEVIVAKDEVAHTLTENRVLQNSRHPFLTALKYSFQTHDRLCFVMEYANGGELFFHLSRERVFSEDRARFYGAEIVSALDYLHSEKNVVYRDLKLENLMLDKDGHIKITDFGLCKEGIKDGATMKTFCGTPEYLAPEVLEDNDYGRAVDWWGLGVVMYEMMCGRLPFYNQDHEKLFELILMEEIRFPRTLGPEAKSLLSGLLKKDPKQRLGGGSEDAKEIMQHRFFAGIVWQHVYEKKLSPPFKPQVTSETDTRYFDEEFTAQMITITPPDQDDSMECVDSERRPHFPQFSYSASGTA

Compound: CNC(=O)Nc1ccc(-c2nc(N3CC4CCC(C3)O4)c3cnn(C4CCC5(CC4)OCCO5)c3n2)cc1
% of control [1]: 100%
% of inhibition [2]: 11%

% of inhibition [3]: 1.7%
% of inhibition [4]: -4.6%
% of inhibition [5]: -22.9%
Compound: CC[C@@H]1[C@H](F)C(=O)N[C@@H]1COc1nccc2cc(C(N)=O)c(OC)cc12 [ZIMLOVISERTIB]

Compound: COCCN1CCC(c2cc(CN(C)C(=O)c3cccc(Oc4ccccc4)c3)ccn2)CC1
% activity ([6]; at 1 µM): > 95%
% activity ([6]; at 10 µM): > 85%

Compound: COCC(=O)NC/C=C/c1ccc2ncnc(Nc3ccc(Oc4ccc(C)nc4)c(C)c3)c2c1 [CP-724714]
% of control [7]: 74%

Compound: CN(C)C/C=C/C(=O)Nc1ccc(C(=O)N2CCCC(Nc3ncc(Cl)c(-c4c[nH]c5ccccc45)n3)C2)cc1 (centres undefined)
% of control [8]: 5.7%

IC50 [9]: > 10 µM
Compound: CCc1cccc(CC)c1NC(=O)c1nn(C)c2c1CCc1cnc(Nc3ccc(C(=O)NC4CCN(C)CC4)cc3OC(F)(F)F)nc1-2

Compound: C=CC(=O)Nc1cc(-n2c(=O)ccc3cnc4ccc(-c5ccc(NS(C)(=O)=O)cc5)cc4c32)ccc1C
% of control ([10]; at 1 µM): 100%
% of control ([10]; at 10 µM): 100%

Compound: COc1cc(N(C)c2ccnc3ccc(C(F)(F)F)cc23)cc(OC)c1OC
% binding [11]: 84%

Compound: Cc1cc([C@@H](C)Nc2ccccc2C(=O)O)c2nc(N3CCOCC3)cc(=O)n2c1 [AZD-6482]
% of control [12]: 61%
